The record followed here is US9694011B2, “Substituted pyrazolopyrimidines as kinases inhibitors” (JIANGSU MEDOLUTION LTD, priority 2013, dated 2017).

Structures are written as SMILES. Where only a bound is given, the exact number is not on record here.

In one assay the target is BTK (Homo sapiens (Human), UniProt Q06187). Nature of the assay: in vitro kinase binding assay (Kd, phage-tagged kinase, qPCR). The method, then: (§1) An in vitro assay which determines the ability of a test compound to inhibit EGFR (L858R), EGFR (L858R,T790M) and BTK kinases.
Chain of BTK (Q06187 whole entry): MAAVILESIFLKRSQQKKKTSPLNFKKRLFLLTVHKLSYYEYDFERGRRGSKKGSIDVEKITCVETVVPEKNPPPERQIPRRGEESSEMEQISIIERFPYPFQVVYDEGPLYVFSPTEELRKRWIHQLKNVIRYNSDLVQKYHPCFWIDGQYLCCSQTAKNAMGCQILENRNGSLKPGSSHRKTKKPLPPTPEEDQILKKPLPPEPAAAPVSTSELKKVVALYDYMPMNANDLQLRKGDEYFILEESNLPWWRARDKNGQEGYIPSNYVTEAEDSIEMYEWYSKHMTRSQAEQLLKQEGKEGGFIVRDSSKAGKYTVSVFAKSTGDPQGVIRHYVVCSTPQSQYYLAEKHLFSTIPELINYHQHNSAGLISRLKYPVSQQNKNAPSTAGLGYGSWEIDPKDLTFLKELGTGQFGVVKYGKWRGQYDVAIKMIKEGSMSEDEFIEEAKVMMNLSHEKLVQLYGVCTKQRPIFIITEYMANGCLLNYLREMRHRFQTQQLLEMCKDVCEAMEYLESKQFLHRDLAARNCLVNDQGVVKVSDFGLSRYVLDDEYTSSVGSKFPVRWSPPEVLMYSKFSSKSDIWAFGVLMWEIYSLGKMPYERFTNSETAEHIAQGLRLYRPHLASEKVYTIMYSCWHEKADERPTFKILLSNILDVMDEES
(§2) Kinase-tagged T7 phage strains were prepared in an E. coli host derived from the BL21 strain. E. coli were grown to log-phase and infected with T7 phage and incubated with shaking at 32° C. until lysis. The lysates were centrifuged and filtered to remove cell debris. The remaining kinases were produced in HEK-293 cells and subsequently tagged with DNA for qPCR detection. Streptavidin-coated magnetic beads were treated with biotinylated small molecule ligands for 30 minutes at room temperature to generate affinity resins for kinase assays. The liganded beads were blocked with excess biotin and washed with blocking buffer (SeaBlock (Pierce), 1% BSA, 0.05% Tween 20, 1 mM DTT) to remove unbound ligand and to reduce non-specific binding. Binding reactions were assembled by combining kinases, liganded affinity beads, and test compounds in 1× binding buffer (20% SeaBlock, 0.17×PBS, 0.05% Tween 20, 6 mM DTT). All reactions were performed in polystyrene 96-well plates in a final volume of 0.135 ml. The assay plates were incubated at room temperature with shaking for 1 hour and the affinity beads were washed with wash buffer (1×PBS, 0.05% Tween 20). The beads were then re-suspended in elution buffer (lx PBS, 0.05% Tween 20, 0.5 μM non-biotinylated affinity ligand) and incubated at room temperature with shaking for 30 minutes. The kinase concentration in the eluates was measured by qPCR.
(§3) An 11-point 3-fold serial dilution of each test compound was prepared in 100% DMSO at 100× final test concentration and subsequently diluted to 1× in the assay (final DMSO concentration=1%). Kds were determined using a compound top concentration=10,000 nM. If the initial Kd determined was <0.5 nM (the lowest concentration tested), the measurement was repeated with a serial dilution starting at a lower top concentration.
(§4) Binding constants (Kds) were calculated with a standard dose-response curve using the Hill equation: Response=Background+(Signal−Background)/(1+(Kd^Hill Slope/Dose^Hill Slope)). The Hill Slope was set to −1. Curves were fitted using a non-linear least square fit with the Levenberg-Marquardt algorithm.
(In general: Quantitative PCR measures a nucleic acid by following its amplification.)

The next assay deals with EGFR (L858R) (Homo sapiens (Human), UniProt P00533, L858R). Described as above. How it is done:
as §1, §2, §3, §4

A further assay has as its target EGFR (L858R,T790M) (Homo sapiens (Human), UniProt P00533, L858R/T790M). The assay is described as above. The method, then:
as §1, §2, §3, §4

The test system of assay [1] is cancer cell line NCI-H1975. Nature of the assay: NCI-H1975 cell proliferation assay (MTT). The following applies: Homo sapiens, NCI-H1975 cells, 72 hours treatment. The format is cell-based. The method, then:
A representative number of compounds were assayed against cancer cell line NCI-H1975 using the cell proliferation assay:
1. 5×10^3 cells per well in 100 μl of medium were seeded in 96-well plate, here the medium contained 5% FBS
2. 24 hours later, 100 μl fresh medium was added with various concentrations of compounds into each well, while the medium here was free of FBS
3. After the cells were treated with compounds for 72 hours, 20 μl MTT (5 mg/ml) was added into each well, and then the assay plate was incubated at 37° C. for 4 more hours.
4. The assay plate was centrifuged at 800 g for 10 min. The medium was aspirated, 150 μl DMSO was added into each well. The plate was gently shaked for 10 min.
5. The absorbance at 570 nm was measured on the plate reader.

Chain of EGFR (L858R) (P00533 25-1210 L858R): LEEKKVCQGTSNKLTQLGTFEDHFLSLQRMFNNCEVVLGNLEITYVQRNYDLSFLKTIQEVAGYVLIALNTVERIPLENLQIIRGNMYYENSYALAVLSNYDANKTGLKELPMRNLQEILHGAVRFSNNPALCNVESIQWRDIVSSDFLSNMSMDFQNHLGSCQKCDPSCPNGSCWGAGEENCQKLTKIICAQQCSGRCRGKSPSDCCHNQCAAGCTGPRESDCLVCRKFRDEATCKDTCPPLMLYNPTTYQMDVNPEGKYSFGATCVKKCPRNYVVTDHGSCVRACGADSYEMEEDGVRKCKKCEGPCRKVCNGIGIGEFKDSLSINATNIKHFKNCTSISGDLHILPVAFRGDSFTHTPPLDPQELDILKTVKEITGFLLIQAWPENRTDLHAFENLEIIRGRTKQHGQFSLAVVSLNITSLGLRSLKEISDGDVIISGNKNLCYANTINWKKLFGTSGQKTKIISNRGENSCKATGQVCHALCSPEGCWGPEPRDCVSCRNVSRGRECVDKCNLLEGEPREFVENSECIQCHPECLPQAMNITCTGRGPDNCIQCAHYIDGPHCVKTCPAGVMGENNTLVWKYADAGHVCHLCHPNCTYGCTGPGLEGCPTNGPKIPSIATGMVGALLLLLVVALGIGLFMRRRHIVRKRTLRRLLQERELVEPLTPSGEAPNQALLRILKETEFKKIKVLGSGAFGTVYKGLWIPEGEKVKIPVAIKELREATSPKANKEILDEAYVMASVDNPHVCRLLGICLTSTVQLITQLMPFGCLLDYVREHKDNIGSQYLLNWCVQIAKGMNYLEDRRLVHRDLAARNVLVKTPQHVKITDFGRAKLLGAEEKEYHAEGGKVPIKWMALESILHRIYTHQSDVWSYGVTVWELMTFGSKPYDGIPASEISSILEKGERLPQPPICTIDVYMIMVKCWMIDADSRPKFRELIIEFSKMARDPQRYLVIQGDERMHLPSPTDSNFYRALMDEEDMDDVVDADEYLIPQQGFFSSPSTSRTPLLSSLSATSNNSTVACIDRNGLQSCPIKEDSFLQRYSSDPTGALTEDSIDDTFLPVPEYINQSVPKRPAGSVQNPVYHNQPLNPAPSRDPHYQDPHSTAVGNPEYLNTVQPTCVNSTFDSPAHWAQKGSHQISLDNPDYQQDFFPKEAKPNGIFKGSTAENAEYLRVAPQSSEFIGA
Chain of EGFR (L858R,T790M) (P00533 25-1210 T790M/L858R): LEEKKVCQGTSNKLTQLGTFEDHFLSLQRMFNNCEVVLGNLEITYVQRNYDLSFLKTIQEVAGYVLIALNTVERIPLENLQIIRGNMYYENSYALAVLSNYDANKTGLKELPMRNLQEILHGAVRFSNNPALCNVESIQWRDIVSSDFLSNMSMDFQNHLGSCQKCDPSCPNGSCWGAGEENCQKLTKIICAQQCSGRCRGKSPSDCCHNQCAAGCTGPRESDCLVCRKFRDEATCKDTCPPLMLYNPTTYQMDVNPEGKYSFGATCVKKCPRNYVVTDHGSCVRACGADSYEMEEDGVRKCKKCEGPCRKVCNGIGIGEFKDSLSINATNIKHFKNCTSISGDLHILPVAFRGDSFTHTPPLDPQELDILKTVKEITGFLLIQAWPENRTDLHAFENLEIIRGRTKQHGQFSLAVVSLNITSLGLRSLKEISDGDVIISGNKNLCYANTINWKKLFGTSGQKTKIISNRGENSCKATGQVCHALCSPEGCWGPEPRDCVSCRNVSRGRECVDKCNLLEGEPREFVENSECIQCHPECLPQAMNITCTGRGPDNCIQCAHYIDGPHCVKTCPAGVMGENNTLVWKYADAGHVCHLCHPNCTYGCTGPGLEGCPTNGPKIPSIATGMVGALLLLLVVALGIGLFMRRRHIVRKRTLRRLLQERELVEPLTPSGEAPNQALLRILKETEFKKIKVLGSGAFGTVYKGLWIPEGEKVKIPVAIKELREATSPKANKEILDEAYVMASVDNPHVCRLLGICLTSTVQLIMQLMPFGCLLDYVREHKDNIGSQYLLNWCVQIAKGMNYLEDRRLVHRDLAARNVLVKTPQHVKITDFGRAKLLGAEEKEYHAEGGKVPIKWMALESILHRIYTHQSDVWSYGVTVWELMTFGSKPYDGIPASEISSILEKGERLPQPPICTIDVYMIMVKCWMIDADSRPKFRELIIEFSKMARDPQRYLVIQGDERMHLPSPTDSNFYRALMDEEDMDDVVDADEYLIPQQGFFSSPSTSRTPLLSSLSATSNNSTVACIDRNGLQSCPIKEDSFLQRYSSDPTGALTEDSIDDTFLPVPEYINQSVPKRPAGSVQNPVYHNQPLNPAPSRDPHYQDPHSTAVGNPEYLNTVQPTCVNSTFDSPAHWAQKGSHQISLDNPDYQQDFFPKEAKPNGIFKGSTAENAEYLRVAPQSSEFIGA

Regarding `C=CC(=O)N1CCC[C@@H](n2nc(-c3ccc(Oc4ccc(F)cc4)cc3)c3c(N)ncnc32)C1` [Compound 17, (R)-1-(3-(4-amino-3-(4-(4-fluorophenoxy)phenyl)-1H-pyrazolo[3,4-d]pyrimidin-1-yl)piperidin-1-yl)prop-2-en-1-one], the dissociation constant Kd at BTK was under 10 nM; at EGFR (L858R), 54 nM; at EGFR (L858R,T790M) it was 270 nM.

In the case of `C=CC(=O)N1CCC[C@@H](n2nc(-c3ccc(Oc4ccccc4)c(Cl)c3)c3c(N)ncnc32)C1` [Compound 18, (R)-1-(3-(4-amino-3-(3-chloro-4-phenoxyphenyl)-1H-pyrazolo[3,4-d]pyrimidin-1-yl)piperidin-1-yl)prop-2-en-1-one], the Kd on BTK is under 10 nM; on EGFR (L858R), 6.3 nM; at EGFR (L858R,T790M), 9.3 nM. Besides, in assay [1], the midpoint of inhibition, the IC50, lay at 494 nM.

In the case of `C=CC(=O)N1CCC[C@@H](n2nc(-c3ccc(Oc4ccccc4)cc3)c3c(N)ncnc32)C1` [Ibrutinib, reference compound], the IC50 in assay [1] was over 2000 nM.

For orientation: Kd means the free concentration of one partner at which half of the binding sites on the other are occupied at equilibrium, for simple one-to-one binding. Low values mean higher affinity, high ones lower affinity. One may read the IC50 as the concentration at which inhibition is half-maximal.
